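Cultured in 96-well plates, cells were exposed to test compound for 48 hours across five concentrations. At the GI50, growth is halved. The concentration for full growth arrest is given as TGI.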
Tests used:
Test in all cases: NCI-60 cell line screen, 48 h
[1] = test system: ACHN renal
[2] = test system: SNB-75 CNS
[3] = test system: BT-549 breast
[4] = test system: MDA-MB-231 breast
[5] = test system: MALME-3M melanoma
[6] = test system: SN12C renal
[7] = test system: LOX IMVI melanoma

| SMILES | GI50 [1] | TGI [1] | GI50 [2] | TGI [2] | GI50 [3] | TGI [3] | GI50 [4] | TGI [4] | GI50 [5] | TGI [5] | GI50 [6] | TGI [6] | GI50 [7] | TGI [7] |
| --- | --- | --- | --- | --- | --- | --- | --- | --- | --- | --- | --- | --- | --- | --- |
| CO/N=C(\COc1ccc2c(=O)cc(-c3ccccc3)oc2c1)c1ccc(OC)cc1 | > 100 µM | > 100 µM | 38.2 µM | > 100 µM | > 100 µM | > 100 µM | 48.4 µM | > 100 µM | > 100 µM | > 100 µM | 88.2 µM | > 100 µM | > 100 µM | > 100 µM |
| COc1cc2c3c(n(CCCn4cccn4)c(=O)c2cc1OC)-c1cc2c(cc1C3=O)OCO2 | 0.396 µM | 5.61 µM | 1.53 µM | 15.4 µM | 3.4 µM | > 70 µM | 8.65 µM | 35.5 µM | 9.4 µM | > 96.7 µM | 0.463 µM | 3.08 µM | 0.728 µM | 11.1 µM |
| Cn1c(-c2c(N)n(Cc3ccc(Cl)cc3)c3nc(C#N)c(C#N)nc23)nc2ccccc21 | 1.5 µM | 6.38 µM | – | – | 6.44 µM | 15.6 µM | 1.69 µM | 9.41 µM | – | – | 2.57 µM | 10.3 µM | 1.14 µM | 5.68 µM |
| CC(C)(C)OC(=O)N(CCCn1c2c(c3ccccc3c1=O)C(=O)c1ccccc1-2)CCN(CCCn1c2c(c3ccccc3c1=O)C(=O)c1ccccc1-2)C(=O)OC(C)(C)C | 11.2 µM | 48.9 µM | – | – | > 50 µM | > 50 µM | 15.3 µM | > 50 µM | > 50 µM | > 50 µM | 39.9 µM | > 50 µM | 25.2 µM | > 50 µM |
| O=C(Oc1ccccc1Cl)c1cccnc1Nc1ccnc(C(F)(F)F)c1 | 22 µM | 50.2 µM | – | – | 5.12 µM | 22.4 µM | 11.9 µM | 46.7 µM | 8.29 µM | 41.1 µM | 4.03 µM | 18 µM | 3.96 µM | 14.2 µM |
| COc1ccc(CNCCCN2C(=O)c3ccc4c5c(ccc(c35)C2=O)C(=O)N(CCCNCCCCNCCCN)C4=O)c(OC)c1OC | – | – | 1.27 µM | 3.63 µM | 6.13 µM | 21.5 µM | 2.44 µM | 18 µM | 1.21 µM | 2.76 µM | – | – | 0.654 µM | 7.83 µM |
| S=C1SC2(CCCCCC2)NC2=C1CCCCC2 | – | > 100 µM | – | 81.8 µM | – | – | – | > 100 µM | – | > 100 µM | – | > 100 µM | – | > 100 µM |
| O=c1c2ccccc2c(C=NCCNCCO)c2oc3ccccc3n12 | 3.54 µM | 14.9 µM | – | – | – | – | 11.5 µM | 24.4 µM | – | – | 4.34 µM | 18.3 µM | 5.83 µM | 18.4 µM |
| CC(=O)OC1C(O)COC(Oc2c(C)c3c4c(c2O)[C@@H](C)CC[C@@H]4[C@@H](C)C[C@H]3C=C(C)C)C1O (some centres not stated) | 18.7 µM | 42.5 µM | – | – | – | – | – | – | 15.3 µM | 30.1 µM | 19.3 µM | 44.5 µM | 18 µM | 35.4 µM |
| COc1cc2c(C#N)n3c(c2cc1OC)C(=O)C(c1ccccc1)Oc1ccccc1-3 (configuration not stated) | – | – | 4.39 µM | 24.6 µM | 1.97 µM | 5.54 µM | 4.05 µM | 68.6 µM | > 100 µM | > 100 µM | – | – | 3.18 µM | > 100 µM |
| CCc1nc2cc(/C=C/C(=O)NO)c(F)cc2c(=O)n1CCc1ccccc1 | 0.744 µM | 2.9 µM | 2.41 µM | 17.3 µM | 2.32 µM | 13.4 µM | 0.668 µM | 7.97 µM | 0.944 µM | 10.4 µM | – | – | 0.488 µM | 1.97 µM |
| O=C(/C=C/c1ccccc1)c1ccc(O)c(CN2CCN(c3cc4c(cc3F)c(=O)c(C(=O)O)cn4C3CC3)CC2)c1 | 1.9 µM | 13.9 µM | 0.378 µM | 9.78 µM | 0.989 µM | 26.3 µM | 1.94 µM | 7.65 µM | 0.769 µM | 15.6 µM | – | – | – | – |
| COc1cccc(NC(=O)c2ccc(C(F)(F)F)nc2Nc2ccc(Cl)cc2C)c1 | – | – | 12.3 µM | 25.5 µM | 14.1 µM | 28.4 µM | 10.4 µM | 23.3 µM | – | – | 12.4 µM | 25.7 µM | 11.3 µM | 23.4 µM |
| COc1cc([N+](=O)[O-])c(S(=O)(=O)O)cc1-n1nc(-c2ccccc2)n[n+]1-c1cc(S(=O)(=O)[O-])c([N+](=O)[O-])cc1OC | – | > 100 µM | – | > 100 µM | – | – | – | > 100 µM | – | > 100 µM | – | > 100 µM | – | > 100 µM |
| C=C(C)[C@@H]1CC[C@]2(C)[C@H](CC=C3[C@@H]4CC(C)(C)CC[C@]4(C(=O)OC)CC[C@]32C)[C@@]1(C)CC/C(N)=N/O | 2.05 µM | 5.81 µM | – | – | 1.93 µM | 4.12 µM | 1.61 µM | 3.24 µM | 1.69 µM | 3.33 µM | 1.66 µM | 3.2 µM | – | – |
